The values that follow are results of earlier work, collected in patent US8592402B2, “Compounds as lysophosphatidic acid receptor antagonists” (Amira Pharmaceuticals, Inc., priority 2009, dated 2013).

One data set relates to nerve-injured mice. The note with it: pretreatment.
In data set [1] the test system is human foetal lung fibroblasts.
Data set [2] has as its system highly peritoneal metastatic pancreatic cancer cell line. The note with it: LPA-induced and ascites-induced.
In data set [3] the test system is pancreatic cancer cell lines. The note with it: in response to LPA and peritoneal fluid (ascites) from pancreatic cancer patients.
Another data set deals with UUO mice. The note with it: compared with LPA1 (−/−) mice.
Data set [4] relates to mouse epithelial renal cell line, MCT. The note with it: LPA treatment of MCT cells, co-treatment.

Consider `C[C@@H](N)[C@H]1CC[C@H](C(=O)Nc2ccncc2)CC1` [Compound Y-27632], for which the allodynia and hyperalgesia entry in the data set on nerve-injured mice is on record as “completely abolished”.

Take `Cc1noc(-c2ccc(CSCCC(=O)O)cc2)c1NC(=O)OC(C)c1ccccc1Cl` (stereo not shown) [Ki16425]: the fibroblast chemotactic activity entry in data set [1] (bronchoalveolar lavage samples of human subjects with IPF) is reported as “inhibited”. For the same compound, in data set [1] (induced by BAL obtained from IPF patients), the “chemotaxis of human foetal lung fibroblasts” value was “blocked”. Further, the invasion activity entry in data set [2] is “blocked”. Besides, the in vitro migration result in data set [3] was “effectively blocked”. For the same compound, the “development of renal fibrosis” value in the data set with UUO mice was “closely resembled the LPA1 (−/−) mice”. In data set [4], the “induction of CTGF expression” value is “almost completely suppressed”.
